pKi: −log10 of the molar value. Where two headings read alike, the source gives them in different places.

The target in this assay is GST-Bcl-2 (Homo sapiens (Human), UniProt P10415). Kind of assay: Time Resolved-Fluorescence Resonance Energy Transfer (TR-FRET) Bcl-2 binding assay. The gist of the method: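 Ki values derived from TR-FRET displacement of F-Bak peptide from GST-Bcl-2, detected with Tb-labelled anti-GST antibody (ex 340, em 520/495 nm). Compound dilution series started at 50 μM (2× starting concentration); room-temperature incubation 3 hours.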
GST-Bcl-2, sequence (P10415 whole entry): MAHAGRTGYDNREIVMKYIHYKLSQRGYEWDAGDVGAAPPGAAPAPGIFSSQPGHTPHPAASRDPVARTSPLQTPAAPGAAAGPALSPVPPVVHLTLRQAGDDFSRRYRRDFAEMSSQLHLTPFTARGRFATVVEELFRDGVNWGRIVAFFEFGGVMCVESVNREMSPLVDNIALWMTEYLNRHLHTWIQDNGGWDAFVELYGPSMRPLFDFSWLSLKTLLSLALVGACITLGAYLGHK

[1] abbreviates: GST-Bcl-2 1 nM, F-Bak peptide probe 100 nM, Tb-anti-GST antibody 1 nM, Ki by Wang's equation.

As to `O=C(NS(=O)(=O)c1ccc(NCC2CCOCC2)c([N+](=O)[O-])c1)c1ccc(N2CCN(Cc3ccccc3-c3ccc(Cl)cc3)CC2)cc1Oc1ccc(OCCN2CCOCC2)cc1` [Example 94, 4-(4-((4′-chloro-1,1′-biphenyl-2-yl)methyl)piperazin-1-yl)-2-(4-(2-morpholin-4-ylethoxy)phenoxy)-N-((3-nitro-4-((tetrahydro-2H-pyran-4-ylmethyl)amino)phenyl)sulfonyl)benzamide], the pKi (in general, the Ki on a negative log10 scale, so that one unit is a factor of ten) under setting [1] is 6.25. Regarding `CC1(C)CCC(CN2CCN(c3ccc(C(=O)NS(=O)(=O)c4ccc(NCC5CCC(F)(F)CC5)c([N+](=O)[O-])c4)c(Oc4cc5cc[nH]c5cc4F)c3)CC2)=C(c2ccc(Cl)cc2)C1` [Example 411, 4-(4-{[2-(4-chlorophenyl)-4,4-dimethylcyclohex-1-en-1-yl]methyl}piperazin-1-yl)-N-[(4-{[(4,4-difluorocyclohexyl)methyl]amino}-3-nitrophenyl)sulfonyl]-2-[(6-fluoro-1H-indol-5-yl)oxy]benzamide], under setting [1], the pKi is 7.67. In turn, `CC1(C)CCC(CN2CCN(c3ccc(C(=O)NS(=O)(=O)c4ccc(NCC5COCCO5)c([N+](=O)[O-])c4)c(Oc4cnc(N)c(Br)c4)c3)CC2)=C(c2ccc(Cl)cc2)C1` (stereo not shown) [Example 361, 2-[(6-amino-5-bromopyridin-3-yl)oxy]-4-(4-{[2-(4-chlorophenyl)-4,4-dimethylcyclohex-1-en-1-yl]methyl}piperazin-1-yl)-N-({4-[(1,4-dioxan-2-ylmethyl)amino]-3-nitrophenyl}sulfonyl)benzamide] showed a pKi under setting [1] of 10.82.

Regarding `O=C(NS(=O)(=O)c1ccc(NCC2CCOCC2)c([N+](=O)[O-])c1)c1ccc(N2CCN(Cc3ccccc3-c3ccc(Cl)cc3)CC2)cc1Oc1cccc(Cl)c1` [Example 6, 4-(4-((4′-chloro-1,1′-biphenyl-2-yl)methyl)piperazin-1-yl)-2-(3-chlorophenoxy)-N-((3-nitro-4-((tetrahydro-2H-pyran-4-ylmethyl)amino)phenyl)sulfonyl)benzamide], the pKi under setting [1] is 9.10. Under setting [1], `CN1CCN(Nc2ccc(S(=O)(=O)NC(=O)c3ccc(N4CCN(CC5=C(c6ccc(Cl)cc6)CC(C)(C)CC5)CC4)cc3Oc3ccc4[nH]cc(CCN)c4c3)cc2[N+](=O)[O-])CC1` [Example 300, 2-{[3-(2-aminoethyl)-1H-indol-5-yl]oxy}-4-(4-{[2-(4-chlorophenyl)-4,4-dimethylcyclohex-1-en-1-yl]methyl}piperazin-1-yl)-N-({4-[(4-methylpiperazin-1-yl)amino]-3-nitrophenyl}sulfonyl)benzamide] had a pKi of 7.86.

As to `CN1CCC(Nc2ccc(S(=O)(=O)NC(=O)c3ccc(N4CCN(CC5=C(c6ccc(Cl)cc6)CC(C)(C)CC5)CC4)cc3OCc3csc(N)n3)cc2[N+](=O)[O-])CC1` [Example 223, 2-[(2-amino-1,3-thiazol-4-yl)methoxy]-4-(4-{[2-(4-chlorophenyl)-4,4-dimethylcyclohex-1-en-1-yl]methyl}piperazin-1-yl)-N-({4-[(1-methylpiperidin-4-yl)amino]-3-nitrophenyl}sulfonyl)benzamide], the negative-log Ki (pKi) under setting [1] was 7.96. As to `C#Cc1cc(S(=O)(=O)NC(=O)c2ccc(N3CCN(CC4=C(c5ccc(Cl)cc5)CC(C)(C)OC4)CC3)cc2Oc2cc3cc[nH]c3cc2F)cnc1OCC1CCOCC1` [Example 323, 4-(4-{[4-(4-chlorophenyl)-6,6-dimethyl-5,6-dihydro-2H-pyran-3-yl]methyl}piperazin-1-yl)-N-{[5-ethynyl-6-(tetrahydro-2H-pyran-4-ylmethoxy)pyridin-3-yl]sulfonyl}-2-[(6-fluoro-1H-indol-5-yl)oxy]benzamide], the pKi under setting [1] was 8.46.

For `CC1(C)CCC(CN2CCN(c3ccc(C(=O)NS(=O)(=O)c4ccc(NC5CCN(C6CC6)CC5)c([N+](=O)[O-])c4)c(Oc4cc5cc[nH]c5cc4F)c3)CC2)=C(c2ccc(Cl)cc2)C1` [Example 327, 4-(4-{[2-(4-chlorophenyl)-4,4-dimethylcyclohex-1-en-1-yl]methyl}piperazin-1-yl)-N-({4-[(1-cyclopropylpiperidin-4-yl)amino]-3-nitrophenyl}sulfonyl)-2-[(6-fluoro-1H-indol-5-yl)oxy]benzamide], the pKi under setting [1] is 9.67. Take `CC1(C)CCC(CN2CCN(c3ccc(C(=O)NS(=O)(=O)c4ccc(NCC5CN(C6CC6)CCO5)c([N+](=O)[O-])c4)c(Oc4cnc(N)c(Cl)c4)c3)CC2)=C(c2ccc(Cl)cc2)C1` (stereo not shown) [Example 369, 2-[(6-amino-5-chloropyridin-3-yl)oxy]-4-(4-{[2-(4-chlorophenyl)-4,4-dimethylcyclohex-1-en-1-yl]methyl}piperazin-1-yl)-N-[(4-{[(4-cyclopropylmorpholin-2-yl)methyl]amino}-3-nitrophenyl)sulfonyl]benzamide]: the pKi under setting [1] is 10.85. Still for that read-out and setting: with `CC1(C)CCC(CN2CCN(c3ccc(C(=O)NS(=O)(=O)c4ccc(NCC5CCOCC5)c([N+](=O)[O-])c4)c(Oc4ccc(O)nc4)c3)CC2)=C(c2ccc(Cl)cc2)C1` [Example 283, 4-(4-{[2-(4-chlorophenyl)-4,4-dimethylcyclohex-1-en-1-yl]methyl}piperazin-1-yl)-2-[(6-hydroxypyridin-3-yl)oxy]-N-({3-nitro-4-[(tetrahydro-2H-pyran-4-ylmethyl)amino]phenyl}sulfonyl)benzamide] the figure was 7.76; with `CN1CCC(Nc2ccc(S(=O)(=O)NC(=O)c3ccc(N4CCN(CC5=C(c6ccc(Cl)cc6)CC(C)(C)CC5)CC4)cc3Oc3cccc4c3CC(=O)N4)cc2[N+](=O)[O-])CC1` [Example 288, 4-(4-{[2-(4-chlorophenyl)-4,4-dimethylcyclohex-1-en-1-yl]methyl}piperazin-1-yl)-N-({4-[(1-methylpiperidin-4-yl)amino]-3-nitrophenyl}sulfonyl)-2-[(2-oxo-2,3-dihydro-1H-indol-4-yl)oxy]benzamide], 10.77; with `CC1(C)CCC(CN2CCN(c3ccc(C(=O)NS(=O)(=O)c4ccc(NCC5CCOCC5)c([N+](=O)[O-])c4)c(Oc4cncc(NC(=O)OC(C)(C)C)c4)c3)CC2)=C(c2ccc(Cl)cc2)C1` [Example 278, tert-butyl 5-(5-(4-{[2-(4-chlorophenyl)-4,4-dimethylcyclohex-1-en-1-yl]methyl}piperazin-1-yl)-2-{[({3-nitro-4-[(tetrahydro-2H-pyran-4-ylmethyl)amino]phenyl}sulfonyl)amino]carbonyl}phenoxy)pyridin-3-ylcarbamate], 7.40. The compound `CN1CCC(Nc2ccc(S(=O)(=O)NC(=O)c3ccc(N4CCN(CC5=C(c6ccc(Cl)cc6)CC(C)(C)CC5)CC4)cc3Oc3cc4cc[nH]c4cc3F)cc2[N+](=O)[O-])CC1` [Example 154, 4-(4-{[2-(4-chlorophenyl)-4,4-dimethylcyclohex-1-en-1-yl]methyl}piperazin-1-yl)-2-[(6-fluoro-1H-indol-5-yl)oxy]-N-({4-[(1-methylpiperidin-4-yl)amino]-3-nitrophenyl}sulfonyl)benzamide] gave a pKi under setting [1] of 10.92. On to `CC1(C)CCC(CN2CCN(c3ccc(C(=O)NS(=O)(=O)c4ccc(N[C@H]5CC[C@H](N6CCOCC6)CC5)c([N+](=O)[O-])c4)c(Oc4cc5cc[nH]c5c(F)c4F)c3)CC2)=C(c2ccc(Cl)cc2)C1` [Example 235, Trans-4-(4-{[2-(4-chlorophenyl)-4,4-dimethylcyclohex-1-en-1-yl]methyl}piperazin-1-yl)-2-[(6,7-difluoro-1H-indol-5-yl)oxy]-N-({4-[(4-morpholin-4-ylcyclohexyl)amino]-3-nitrophenyl}sulfonyl)benzamide], for which the pKi was 10.41.

In the case of `CC(C)(C)OC(=O)N1CCN(c2cccc(Oc3cc(N4CCN(Cc5ccccc5-c5ccc(Cl)cc5)CC4)ccc3C(=O)NS(=O)(=O)c3ccc(NCC4CCOCC4)c([N+](=O)[O-])c3)c2)CC1` [Example 91, tert-butyl 4-(3-(5-(4-((4′-chloro-1,1′-biphenyl-2-yl)methyl)piperazin-1-yl)-2-((((3-nitro-4-((tetrahydro-2H-pyran-4-ylmethyl)amino)phenyl)sulfonyl)amino)carbonyl)phenoxy)phenyl)piperazine-1-carboxylate], the pKi under setting [1] was less than 5.92. For the compound `CC1(C)CCC(CN2CCN(c3ccc(C(=O)NS(=O)(=O)c4ccc(NCC5CCOCC5)c([N+](=O)[O-])c4)c(Oc4cnc(N)c(C#N)c4)c3)CC2)=C(c2ccc(Cl)cc2)C1` [Example 352, 2-[(6-amino-5-cyanopyridin-3-yl)oxy]-4-(4-{[2-(4-chlorophenyl)-4,4-dimethylcyclohex-1-en-1-yl]methyl}piperazin-1-yl)-N-({3-nitro-4-[(tetrahydro-2H-pyran-4-ylmethyl)amino]phenyl}sulfonyl)benzamide], under setting [1], the pKi is 10.10. For the compound `CNC(=O)c1cccc(Oc2cc(N3CCN(Cc4ccccc4-c4ccc(Cl)cc4)CC3)ccc2C(=O)NS(=O)(=O)c2ccc(NCCCN3CCOCC3)c([N+](=O)[O-])c2)c1` [Example 103, 4-(4-((4′-chlorobiphenyl-2-yl)methyl)piperazin-1-yl)-2-(3-(methylcarbamoyl)phenoxy)-N-(4-(3-morpholinopropylamino)-3-nitrophenylsulfonyl)benzamide], the pKi under setting [1] is 8.17. Same read-out and setting: the value for `CN(C)CCCc1ccccc1Oc1cc(N2CCN(Cc3ccccc3-c3ccc(Cl)cc3)CC2)ccc1C(=O)NS(=O)(=O)c1ccc(NCC2CCOCC2)c([N+](=O)[O-])c1` [Example 28, 4-(4-((4′-chloro-1,1′-biphenyl-2-yl)methyl)piperazin-1-yl)-2-(2-(3-(dimethylamino)propyl)phenoxy)-N-((3-nitro-4-((tetrahydro-2H-pyran-4-ylmethyl)amino)phenyl)sulfonyl)benzamide] was 8.88; that for `CN1CCC(Nc2ccc(S(=O)(=O)NC(=O)c3ccc(N4CCN(CC5=C(c6ccc(Cl)cc6)CC(C)(C)CC5)CC4)cc3Oc3ccccc3C(=O)N(C)C)cc2[N+](=O)[O-])CC1` [Example 214, 2-(5-(4-((2-(4-chlorophenyl)-4,4-dimethylcyclohex-1-enyl)methyl)piperazin-1-yl)-2-(4-(1-methylpiperidin-4-ylamino)-3-nitrophenylsulfonylcarbamoyl)phenoxy)-N,N-dimethylbenzamide] was 9.66.

These data come from US8952157B2, “Apoptosis-inducing agents for the treatment of cancer and immune and autoimmune diseases” (AbbVie Inc., priority 2008, dated 2015).
